Test system: Lactating Holstein Dairy Cows
Test: Feeding evaluation: lactation responses to N-Benzylidene-L-Lysine
Type: in vivo
Text: Evaluation of Feeding N-Benzylidene-L-Lysine Using Lactating Holstein Dairy Cows
All cows received the same base diet. Cows were assigned to one of two treatments: (1) control, (2) control+N-Benzylidene-L-Lysine (TrTA). N-Benzylidene-L-Lysine was supplemented at a rate to supply 40 g of Lys when cows consumed 53.0 lb dry matter/d. The control diet was formulated to be deficient of lysine. “P” refers to the probability value (p-value).

[1] = control diet deficient of lysine plus 40 g Lys from N-Benzylidene-L-Lysine, 14 days

## NCCCC[C@H](N=Cc1ccccc1)C(=O)O [Trt A, N-Benzylidene-L-Lysine]
[1]
  ECM: 81.3 lbs/d
  FCM: 81.2 lbs/d
  Milk: 77.3 lbs/d
Control diet plus 40 g Lys from N-Benzylidene-L-Lysine, 14 days
  ECM/Feed: 1.53
Milk fat content, control diet plus 40 g Lys from N-Benzylidene-L-Lysine, 14 days
  Fat, %: 3.81%
Milk fat yield, control diet plus 40 g Lys from N-Benzylidene-L-Lysine, 14 days
  Fat, lbs/d: 2.94 lbs/d
Milk protein content, control diet plus 40 g Lys from N-Benzylidene-L-Lysine, 14 days
  Protein, %: 3.14%
Milk protein yield, control diet plus 40 g Lys from N-Benzylidene-L-Lysine, 14 days
  Protein, lbs/d: 2.41 lbs/d
Versus lysine-deficient control diet, from Table 1 data
  Lactation response versus control (conclusion in words): produced more milk, more protein and more fat

Source: patent US7883730B2, “Rumen protected lysine” (Zinpro Corporation, priority 2007, dated 2011)
